Results taken from patent US5872126A, “Methods and compositions for treating preterm labor” (priority 1997, dated 1999).
“And” between values parts separate entries of the source, which are not always exact repeats. Equal entries are not always repeated. “Also recorded” adds a separate entry of the source.

Assays:
Format in all cases: in vivo, Sprague-Dawley rat
serum progesterone = assay: Serum progesterone in pregnant rats (Example 3); details: 20 mg/kg/day
Method: (§1) In order to determine if the effects in the experiments conducted in Examples 1 and 2 were due to decreased progesterone catabolism associated with inhibition of 5α-reductase by the 5α-reductase type 1 inhibitor 3-oxo-4-aza-4,7β-dimethyl-16β-(4-chlorophenoxy)-5α-androstane ("test compound"), the following study was performed with the 5α-reductase inhibitor 3-oxo-4-aza-4,7β-dimethyl-16β-(4-chlorophenoxy)-5α-androstane and the progesterone antagonist RU-486.
(§2) Fifty-six pregnant female Sprague-Dawley rats (Charles River Laboratories, Raleigh, N.C.), approximately 10.5 weeks old weighing from 212 to 319 grams were employed in the study. They were fed and housed as described in EXAMPLE 1. The females were assigned to the following groups based on a weight independent random allocation scheme:
(§3) A dose of 10 mg/kg off RU-486 was selected based on the studies of Abdellilah et al., Progesterone and Mifepristone modify principally the response of circular myometrium to oxytocin in preparturient rats: comparison with response to acetylcholine and to calcium J. Pharmacol. and Exp. Therp.
(§4) The drugs were administered by oral gavage. The control article and vehicle consisted of 0.5% methylcellulose in deionized water with 0.02% sodium lauryl sulfate (SLS) and were prepared on a weekly basis and refrigerated when not in use. The test compound formulation (4 mg/mL, in vehicle) was prepared on a weekly basis and was refrigerated when not in use. The RU-486 formulation (2 mg base compound/mL, in 0.5% methylcellulose in deionized water) was prepared on a daily basis.

parturition in the rat [1] = assay: Effect of test compound on parturition in the rat, dosed GD 6 through LD 20 (Example 1); details: for Mean Length of Gestation ± SD: oral gavage
From the text: Effect of the 5α-reductase type 1 inhibitor 3-oxo-4-aza-4,7β-dimethyl-16β-(4-chlorophenoxy)-5α-androstane on parturition in the rat
Fifty female Sprague-Dawley rats (Charles River Laboratories, Raleigh, N.C.) approximately 11 weeks old, weighing from 211 to 297 grams were assigned to the present study. The female rats were housed singly in stainless steel hanging cages prior to and after cohabitation with a male of the same strain. During cohabitation, females were caged with untreated males of the same strain in a ratio of 1 female: 1 male. On Gestational Day (GD) 15 to 17, females were transferred to individual clear polycarbonate boxes containing Beta-Chip bedding in preparation for delivery and in which they remained with their litters throughout the lactation period. Room temperature was maintained between 19.4° and 25.0° C.; room humidity was maintained between 40 and 60% relative humidity, and room lights were set for alternating 12-hour periods of light and dark throughout the study. All rats had free access to PMI Certified Rodent Diet #5002 and tap water throughout the study.
Vehicle consisted of 0.5% methylcellulose in deionized water with […] sodium laurel sulfate (SLS) and was prepared on a weekly basis and refrigerated when not in use.
The high dose formulation of 3-oxo-4-aza-4,7β-dimethyl-16β-(4-chlorophenoxy)-5α-androstane ("test compound") (4 mg/mL, in vehicle) was prepared on a weekly basis and was refrigerated when not in use. All lower does formulations (0.5, 1.0 and 2.0 mg/mL) were prepared on a daily basis by diluting the high dose preparation with the vehicle. Ten females were randomly allocated to each of the following treatment groups: Control, 2.5 mg test compound/kg/day, 5.0 mg test compound/kg/day, 10 mg test compound/kg/day, 20 mg test compound/kg/day. The formulation was administered by oral gavage in a dosage volume of 5 ml/kg based on the most recent body weight. Females were treated once daily with the dose above from GD 6 through LD (lactation day) 20.
Each female was housed with one untreated male of the same strain. […] The day of finding the plugs and/or sperm was considered GD 0.
From GD21 until the completion of delivery (LD 0), each pregnant female was observed on four occasions throughout the day. On GD 24, females were observed twice at 7:30 am and 10:00 am. The onset and completion of delivery and any signs of difficulty in parturition were noted. Those females that had completed delivery at the first observation of the day were assigned a whole day value for the length of gestation (e.g. 21.0 or 22.0 days). Those females that completed delivery during the workday were assigned a half day value (e.g. 21.5 or 22.5 days).

parturition in the rat [2] = assay: Parturition with test compound and progesterone antagonist RU-486 (Example 3); details: test compound 20 mg/kg/day (Group 3)
Method: as §1, §2
Control (Control article)
test compound @ 20 mg/kg/day
as §3, §4

C[C@H]1C[C@H]2N(C)C(=O)CC[C@]2(C)[C@H]2CC[C@]3(C)C[C@@H](Oc4ccc(Cl)cc4)C[C@H]3[C@H]12 [test compound, 3-oxo-4-aza-4,7β-dimethyl-16β-(4-chlorophenoxy)-5α-androstane]
mean serum progesterone, times above control group 1 (serum progesterone; GD 15): approximately 1.6 times
mean serum progesterone, times above control group 1 (serum progesterone; GD 17): ~1.4 times
mean serum progesterone, times above control group 1 (serum progesterone; GD 19): approximately 1.6 times
mean serum progesterone, times above control group 1 (serum progesterone; GD 21): ~3.3 times
correlation of individual serum progesterone values on GD 21 and failure to initiate or complete parturition (serum progesterone; Group 3): positive correlation
number of females completing parturition (parturition in the rat [1]; 2.5 mg/kg/day, delivery day GD 22.0): 2
number of females completing parturition (parturition in the rat [1]; 2.5 mg/kg/day, delivery day GD 22.5): 7
Mean Length of Gestation ± SD (parturition in the rat [1]; 2.5 mg/kg/day): 22.8 ± 0.4 days
Sacrificed GD 24 due to failure to initiate or complete parturition (parturition in the rat [1]; 5.0 mg/kg/day): 3
number of females completing parturition (parturition in the rat [1]; 5.0 mg/kg/day, delivery day GD 22.0): 2
number of females completing parturition (parturition in the rat [1]; 5.0 mg/kg/day, delivery day GD 22.5): 2
number of females completing parturition (parturition in the rat [1]; 5.0 mg/kg/day, delivery day GD 23.0): 2
Mean Length of Gestation ± SD (parturition in the rat [1]; 5.0 mg/kg/day): 22.7 ± 0.7 days
Sacrificed GD 24 due to failure to initiate or complete parturition (parturition in the rat [1]; 10.0 mg/kg/day): 3
number of females completing parturition (parturition in the rat [1]; 10.0 mg/kg/day, delivery day GD 22.5): 2
number of females completing parturition (parturition in the rat [1]; 10.0 mg/kg/day, delivery day GD 23.0): 3
Mean Length of Gestation ± SD (parturition in the rat [1]; 10.0 mg/kg/day): 22.8 ± 0.3 days
Sacrificed GD 24 due to failure to initiate or complete parturition (parturition in the rat [1]; 20 mg/kg/day): 6
number of females completing parturition (parturition in the rat [1]; 20 mg/kg/day, delivery day GD 22.5): 1
number of females completing parturition (parturition in the rat [1]; 20 mg/kg/day, delivery day GD 23.0): 3
Mean Length of Gestation ± SD (parturition in the rat [1]; 20 mg/kg/day): 22.9 ± 0.2 days
failure to initiate or complete parturition (parturition in the rat [1]; 5, 10 and 20 mg/kg/day): treatment related increases in the failure to initiate or complete parturition; also recorded: drug-related increases in the incidence of females that failed to initiate or complete parturition
length of gestation (parturition in the rat [1]; all drug-treated groups, 2.5-20 mg/kg/day): treatment-related increases in the length of gestation
number of females completing parturition (parturition in the rat [2]; delivery day GD 22.0): 1
number of females completing parturition (parturition in the rat [2]; delivery day GD 23.0): 2
number of females completing parturition (parturition in the rat [2]; delivery day GD 24): 3
Sacrificed Early (on GD 24 due to failure to initiate or complete parturition) (parturition in the rat [2]): 7
females that failed to initiate or complete parturition (parturition in the rat [2]): drug related increase in females that failed to initiate or complete parturition
Mean Length of Gestation ± SD (parturition in the rat [2]; only females completing delivery, 20 mg/kg/day): 23.3 days and 23.3 ± 0.8 days
